Columns and labels:
A431 cells = assay: A431 Cell Growth Inhibition Test (MTT Assay); assay type: cell-based, human; details: for IC50 / inhibition at 1 µM: Homo sapiens; for IC50: A-431, 68 h incubation; for Growth Inhibition Ratio (%) / inhibition at 1 µM: compound 1 μM, 68 h incubation; for inhibition at 1 µM: A-431, 68 h, read-out: Growth Inhibition Ratio (%)
Procedure, shortened: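 Cells seeded at 2500/well in DMEM/F12 with 10% FBS, grown overnight, then exposed to compound for 68 h at 37 °C, 5% CO2. Viability by MTT (0.5 mg/ml, 4 h), DMSO-solubilised, OD 490 nm; IC50 is concentration giving 50% growth inhibition relative to controls.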

NCI-H460 cells = assay: NCI-H460 Cell Growth Inhibition Test (MTT Assay); assay type: cell-based; details: Homo sapiens, 72 h incubation
Procedure, shortened: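 Cells seeded at 2500 per well, left overnight, then exposed to compound for 72 h at 37 °C, 5% CO2. Viability by MTT (0.5 mg/ml, 3 h), DMSO-dissolved, OD 490 nm; inhibition ratio = (PC−n)/(PC−NC)×100%, IC50 from curve fit.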

Sk-Br-3 cells = assay: Sk-Br-3 Cell Growth Inhibition Test (SRB Assay); assay type: cell-based; details: Homo sapiens, 91 h incubation
Procedure, shortened: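 Sk-Br-3 cells seeded at 10000/well in DMEM with 10% FBS were incubated overnight, then exposed to compound for 91 h at 37° C, 5% CO2. TCA-fixed cells were SRB-stained and OD read at 570 nm. GI50, TGI and LC50 were derived from growth relative to time-zero, untreated and blank wells.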

AsPC-1 cells = assay: AsPC-1 Cell Growth Inhibition Test (MTT Assay); assay type: cell-based; details: Homo sapiens, ASPC1, 72 h incubation
Protocol: AsPC-1 Cell Growth Inhibition Test (MTT Assay)
Cell strains: AsPC-1 (human pancreatic cancer cell strains);
1. A plate (10 cm) of cells in logarithmic growth phase normally cultured was collected;
2. The culture solution was sucked out. The plate was washed with 5 ml of PBS 1-2 times;
3. PBS was sucked out. 1.5 ml of 0.25% pancreatin was added to infiltrate the cells for 1 min;
4. The pancreatin was sucked out. The culture plate was placed in an incubator. Digestion was carried out for about 7.5 min at 37° C.;
5. 4.5 ml of complete culture solution was added to the culture plate to stop the digestion. The cells were carefully scoured with micropipette (1 ml) to give a uniform cell suspension. The suspension was implanted into a 96-well cell culture plate by 8000 cells/100 μl per well. The culture plate was incubated overnight under 5% CO2 at 37° C. In day 2, 100 μl of culture solution comprising a compound was added in each well, and further incubated for 72 h under 5% CO2 at 37° C.
6. The culture solution was sucked out;
7. 100 μl of serum-free culture solution containing 0.5 mg/ml MTT was added in each well, and incubated for 3 h;
8. The culture solution was carefully sucked out;
9. 100 μl of DMSO was added in each welland vibrated to dissolve;
10. OD values were determined at 490 nM.
1. Calculation of Relative Inhibition Ratio The inhibition ratio of a compound on cell growth=(PC−n)/(PC−NC)×100%
IC50: Concentration of a compound where inhibition ratio was 50%. IC50 values were fitted with Origin7.5.

| Compound | IC50 (A431 cells) | IC50 (NCI-H460 cells) | IC50 (AsPC-1 cells) | Growth Inhibition Ratio (%) (A431 cells) | GI50 (Sk-Br-3 cells) | inhibition at 1 µM (A431 cells) |
| --- | --- | --- | --- | --- | --- | --- |
| CN(C)C/C=C/C(=O)Nc1cc2c(Nc3ccc(F)c(Cl)c3)c(C#N)cnc2cc1OC1CCOC1 (stereo not shown) [Example 4, (E)-N-(4-(3-CHLORO-4-FLUOROPHENYLAMINO)-3-CYANO-7-(TETRAHYDROFURAN-3-YL-OXY)QUINOLIN-6-YL)-4-(DIMETHYLAMINO)-BUT-2-ENAMIDE] | 68 nM | 1600 nM | 1000 nM | 80% | 148 nM | – |
| CN(C)C/C=C/C(=O)Nc1cc2c(Nc3ccc(OCc4ccccc4F)c(Cl)c3)c(C#N)cnc2cc1OC1CCOC1 (stereo not shown) [Example 8, (E)-N-(4-(4-(2-FLUOROBENZYLOXY)-3-CHLOROPHENYLAMINO)-3-CYANO-7-(TETRAHYDROFURAN-3-YL-OXY)QUINOLIN-6-YL)-4-(DIMETHYLAMINO)-BUT-2-ENAMIDE] | 145 nM | 1200 nM | 878 nM | – | – | 91% |
| CN(C)C/C=C/C(=O)Nc1cc2c(Nc3ccc(OCc4cccc(Cl)c4)c(Cl)c3)c(C#N)cnc2cc1OC1CCOC1 (stereo not shown) [Example 11, (E)-N-(4-(4-(3-CHLOROBENZYLOXY)-3-CHLOROPHENYLAMINO)-3-CYANO-7-(TETRAHYDROFURAN-3-YL-OXY)QUINOLIN-6-YL)-4-(DIMETHYLAMINO)-BUT-2-ENAMIDE] | 184 nM | 1500 nM | 1200 nM | – | – | – |
| CN(C)C/C=C/C(=O)Nc1cc2c(Nc3ccc(OCc4ccccc4C#N)c(Cl)c3)c(C#N)cnc2cc1OC1CCOC1 (stereo not shown) [Example 13, (E)-N-(4-(4-(2-CYANOBENZYLOXY)-3-CHLOROPHENYLAMINO)-3-CYANO-7-(TETRAHYDROFURAN-3-YL-OXY)QUINOLIN-6-YL)-4-(DIMETHYLAMINO)-BUT-2-ENAMIDE] | 158 nM | 1800 nM | 922 nM | – | – | 89% |
| CN(C)C/C=C/C(=O)Nc1cc2c(Nc3ccc(OCc4cccc(C#N)c4)c(Cl)c3)c(C#N)cnc2cc1OC1CCOC1 (stereo not shown) [Example 15, (E)-N-(4-(4-(3-CYANOBENZYLOXY)-3-CHLOROPHENYLAMINO)-3-CYANO-7-(TETRAHYDROFURAN-3-YL-OXY)QUINOLIN-6-YL)-4-(DIMETHYLAMINO)-BUT-2-ENAMIDE] | 370 nM | 1400 nM | 1100 nM | – | – | 91% |
| CN(C)C/C=C/C(=O)Nc1cc2c(Nc3ccc(OCc4ccc(Cl)cc4)c(Cl)c3)c(C#N)cnc2cc1OC1CCOC1 (stereo not shown) [Example 16, (E)-N-(4-(4-(4-CHLOROBENZYLOXY)-3-CHLOROPHENYLAMINO)-3-CYANO-7-(TETRAHYDROFURAN-3-YL-OXY)QUINOLIN-6-YL)-4-(DIMETHYLAMINO)-BUT-2-ENAMIDE] | 358 nM | 1100 nM | 810 nM | – | 36 nM | – |
| CN(C)C/C=C/C(=O)Nc1cc2c(Nc3ccc(OCc4ccccn4)c(Cl)c3)c(C#N)cnc2cc1O[C@H]1CCOC1 [Example 138, (S,E)-N-(4-(3-CHLORO-4-(PYRIDIN-2-YL-METHOXY)PHENYLAMINO)-3-CYANO-7-(TETRAHYDROFURAN-3-YL-OXY)QUINOLIN-6-YL)-4-(DIMETHYLAMINO)-BUT-2-ENAMIDE] | 62 nM | 2200 nM | 1000 nM | – | 3.8 nM | 89% |
| CN(C)C/C=C/C(=O)Nc1cc2c(Nc3ccc(OCc4ccccn4)c(Cl)c3)c(C#N)cnc2cc1O[C@@H]1CCOC1 [Example 139, (R,E)-N-(4-(3-CHLORO-4-(PYRIDIN-2-YL-METHOXY)PHENYLAMINO)-3-CYANO-7-(TETRAHYDROFURAN-3-YL-OXY)QUINOLIN-6-YL)-4-(DIMETHYLAMINO)-BUT-2-ENAMIDE] | 93 nM | – | 422 nM | – | 5.2 nM | 90% |
| CN(C)C/C=C/C(=O)Nc1cc2c(Nc3ccc(F)c(Cl)c3)c(C#N)cnc2cc1O[C@H]1CCOC1 [Example 142, (S,E)-N-(4-(3-CHLORO-4-FLUOROPHENYLAMINO)-3-CYANO-7-(TETRAHYDROFURAN-3-YL-OXY)QUINOLIN-6-YL)-4-(DIMETHYLAMINO)-BUT-2-ENAMIDE] | 45 nM | 1040 nM | 1500 nM | – | 117 nM | 75% |
| CCN(CC)C/C=C/C(=O)Nc1cc2c(Nc3ccc(OCc4ccccn4)c(Cl)c3)c(C#N)cnc2cc1O[C@H]1CCOC1 [Example 150, (S,E)-N-(4-(3-CHLORO-4-(PYRIDIN-2-YL-METHOXY)PHENYLAMINO)-3-CYANO-7-(TETRAHYDROFURAN-3-YL-OXY)QUINOLIN-6-YL)-4-(DIETHYLAMINO)-BUT-2-ENAMIDE] | 27 nM | – | 895 nM | – | 11 nM | 84% |

Continued, in another order:

| IC50 (A431 cells) | IC50 (NCI-H460 cells) | IC50 (AsPC-1 cells) | Compound | Growth Inhibition Ratio (%) (A431 cells) | GI50 (Sk-Br-3 cells) | inhibition at 1 µM (A431 cells) |
| --- | --- | --- | --- | --- | --- | --- |
| 135 nM | 1700 nM | 458 nM | CN(C)C/C=C/C(=O)Nc1cc2c(Nc3ccc(OCc4cccc(F)c4)c(Cl)c3)c(C#N)cnc2cc1OC1CCOC1 (stereo not shown) [Example 9, (E)-N-(4-(4-(3-FLUOROBENZYLOXY)-3-CHLOROPHENYLAMINO)-3-CYANO-7-(TETRAHYDROFURAN-3-YL-OXY)QUINOLIN-6-YL)-4-(DIMETHYLAMINO)-BUT-2-ENAMIDE] | 90% | 15 nM | – |
| 222 nM | 1700 nM | 1000 nM | CN(C)C/C=C/C(=O)Nc1cc2c(Nc3ccc(OCc4ccccc4Cl)c(Cl)c3)c(C#N)cnc2cc1OC1CCOC1 (stereo not shown) [Example 10, (E)-N-(4-(4-(2-CHLOROBENZYLOXY)-3-CHLOROPHENYLAMINO)-3-CYANO-7-(TETRAHYDROFURAN-3-YL-OXY)QUINOLIN-6-YL)-4-(DIMETHYLAMINO)-BUT-2-ENAMIDE] | – | 6 nM | – |
| 147 nM | 970 nM | 1200 nM | CN(C)C/C=C/C(=O)Nc1cc2c(Nc3ccc(OCc4ccccc4)c(Cl)c3)c(C#N)cnc2cc1OC1CCOC1 (stereo not shown) [Example 12, (E)-N-(4-(4-(BENZYLOXY)-3-CHLOROPHENYLAMINO)-3-CYANO-7-(TETRAHYDROFURAN-3-YL-OXY)QUINOLIN-6-YL)-4-(DIMETHYLAMINO)-BUT-2-ENAMIDE] | – | – | – |
| 194 nM | 1500 nM | 1000 nM | Cc1ccccc1COc1ccc(Nc2c(C#N)cnc3cc(OC4CCOC4)c(NC(=O)/C=C/CN(C)C)cc23)cc1Cl (stereo not shown) [Example 17, (E)-N-(4-(4-(2-METHYLBENZYLOXY)-3-CHLOROPHENYLAMINO)-3-CYANO-7-(TETRAHYDROFURAN-3-YL-OXY)QUINOLIN-6-YL)-4-(DIMETHYLAMINO)-BUT-2-ENAMIDE] | – | 7 nM | – |
| 390 nM | 1100 nM | 621 nM | Cc1ccc(COc2ccc(Nc3c(C#N)cnc4cc(OC5CCOC5)c(NC(=O)/C=C/CN(C)C)cc34)cc2Cl)cc1 (stereo not shown) [Example 19, (E)-N-(4-(4-(4-METHYLBENZYLOXY)-3-CHLOROPHENYLAMINO)-3-CYANO-7-(TETRAHYDROFURAN-3-YL-OXY)QUINOLIN-6-YL)-4-(DIMETHYLAMINO)-BUT-2-ENAMIDE] | – | 63 nM | – |
| 26 nM | 1100 nM | – | C#Cc1cccc(Nc2c(C#N)cnc3cc(O[C@H]4CCOC4)c(NC(=O)/C=C/CN(C)C)cc23)c1 [Example 140, (S,E)-N-(3-CYANO-4-(3-ETHYNYLPHENYLAMINO)-7-(TETRAHYDROFURAN-3-YL-OXY)QUINOLIN-6-YL)-4-(DIMETHYLAMINO)-BUT-2-ENAMIDE] | – | 22 nM | 87% |
| 50 nM | 2900 nM | – | C#Cc1cccc(Nc2c(C#N)cnc3cc(O[C@@H]4CCOC4)c(NC(=O)/C=C/CN(C)C)cc23)c1 [Example 141, (R,E)-N-(3-CYANO-4-(3-ETHYNYLPHENYLAMINO)-7-(TETRAHYDROFURAN-3-YL-OXY)QUINOLIN-6-YL)-4-(DIMETHYLAMINO)-BUT-2-ENAMIDE] | – | 39 nM | 80% |
| 61 nM | – | 810 nM | N#Cc1cnc2cc(O[C@H]3CCOC3)c(NC(=O)/C=C/CN3CCCCC3)cc2c1Nc1ccc(OCc2ccccn2)c(Cl)c1 [Example 151, (S,E)-N-(4-(3-CHLORO-4-(PYRIDIN-2-YL-METHOXY)PHENYLAMINO)-3-CYANO-7-(TETRAHYDROFURAN-3-YL-OXY)QUINOLIN-6-YL)-4-(PIPERIDIN-1-YL)-BUT-2-ENAMIDE] | – | 17 nM | – |

— patent US9187458B2, “Cyanoquinoline derivatives” (Tianjin Hemay Bio-Tech Co., LTD., priority 2010, dated 2015)
